Converted amounts (≈) assume the structure as drawn.
Experiments:
[1] = molecular target: T1, human soluble guanylate cyclase alpha 1 and beta 1 subunits (sGC) stably expressed in Chinese hamster ovary cells (Homo sapiens, UniProt Q02108+Q02153); assay: sGC cellular activator assay: cGMP in CHO cells expressing human sGC, preincubated with ODQ; format: cell-based; details: 40 microM ODQ preincubation, 30 min at room temperature, presence or absence of 50% human serum not given, read-out: EC50 nM, Activity of Compounds in Cellular Assay
T1 construct: expressed in transfected cells; host or cells: Chinese hamster ovary cells, stably transfected
T1 sequence (Q02108 1-690 partner): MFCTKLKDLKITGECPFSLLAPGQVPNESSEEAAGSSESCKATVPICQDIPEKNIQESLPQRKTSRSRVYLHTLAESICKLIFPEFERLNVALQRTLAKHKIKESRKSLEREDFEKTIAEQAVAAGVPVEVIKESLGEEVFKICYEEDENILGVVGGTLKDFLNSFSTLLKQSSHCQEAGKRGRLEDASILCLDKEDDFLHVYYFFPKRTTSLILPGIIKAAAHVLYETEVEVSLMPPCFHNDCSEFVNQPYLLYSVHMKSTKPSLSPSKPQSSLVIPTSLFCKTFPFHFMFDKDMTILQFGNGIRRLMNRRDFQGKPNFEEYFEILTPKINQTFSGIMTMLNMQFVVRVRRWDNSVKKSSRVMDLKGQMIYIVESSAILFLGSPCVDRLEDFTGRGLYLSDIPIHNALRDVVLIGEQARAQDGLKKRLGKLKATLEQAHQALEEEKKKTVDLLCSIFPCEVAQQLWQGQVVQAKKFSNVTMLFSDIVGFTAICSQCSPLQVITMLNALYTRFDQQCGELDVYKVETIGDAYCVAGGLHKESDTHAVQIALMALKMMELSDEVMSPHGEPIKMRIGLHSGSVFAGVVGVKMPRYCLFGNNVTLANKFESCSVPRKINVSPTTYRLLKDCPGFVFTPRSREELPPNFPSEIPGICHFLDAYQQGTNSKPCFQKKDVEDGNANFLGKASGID
T1 sequence (Q02153 1-619): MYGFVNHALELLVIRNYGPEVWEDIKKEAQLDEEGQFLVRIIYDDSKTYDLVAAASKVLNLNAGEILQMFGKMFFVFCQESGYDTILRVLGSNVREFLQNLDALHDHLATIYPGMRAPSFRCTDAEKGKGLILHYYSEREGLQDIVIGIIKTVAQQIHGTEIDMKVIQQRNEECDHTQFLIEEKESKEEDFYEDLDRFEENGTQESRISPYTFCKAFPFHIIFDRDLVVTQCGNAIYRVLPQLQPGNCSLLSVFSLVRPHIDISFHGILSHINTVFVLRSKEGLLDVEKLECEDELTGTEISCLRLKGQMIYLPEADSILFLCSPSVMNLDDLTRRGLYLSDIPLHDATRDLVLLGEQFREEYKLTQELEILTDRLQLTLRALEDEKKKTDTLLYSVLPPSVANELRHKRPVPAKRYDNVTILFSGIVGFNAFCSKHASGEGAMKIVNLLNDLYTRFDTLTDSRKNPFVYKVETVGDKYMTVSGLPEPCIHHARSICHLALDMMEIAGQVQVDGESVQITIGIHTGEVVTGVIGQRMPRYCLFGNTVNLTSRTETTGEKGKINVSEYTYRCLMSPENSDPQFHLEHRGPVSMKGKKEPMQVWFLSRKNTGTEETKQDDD
Summary of the method: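 EC50 values derive from HTRF cGMP measurement after test compounds act for thirty minutes at room temperature, with or without 50% human serum. Before dosing, the sGC-transfected CHO cells spend one hour with the inhibitor ODQ (40 microM) in IBMX- and 0.1% BSA-containing buffer.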

[2] = Assessment of solubility: HT solubility in pION buffer, UV spectrophotometry; details: kinetic from dmso stock
[3] = pH 6.8, aqueous buffer, Solubility (pH 6.8), pH 6.8
[4] = pION system solution buffer, pH 4.5, pH 4.5, aqueous buffer, Solubility (pH 4.5), pH 4.5 buffer, 16-19 h incubation, 1.0% DMSO
[5] = pION system solution buffer, pH 7.4, pH 7.4, aqueous buffer, Solubility (pH 7.4), pH 7.4 buffer, 16-19 h incubation, 1.0% DMSO

SMILES | EC50 [1] [nM] | solubility [2, 3] [µg/mL] | solubility [2, 4] [µg/mL] | solubility [2, 5] [µg/mL]
Cc1ccc(OCc2ccc(C(=O)N(C)CC3(CO)CC3)cc2C)c(-c2csc(N3C[C@H]4CC[C@@H](C3)[C@H]4C(=O)O)n2)c1 [Compound 342] | 110 | 55 (≈ 93.3 µM) | < 0.1 | 
Cc1ccc(OCc2ccc(C(=O)N(C)CCCO)cc2C)c(-c2csc(N3C[C@H]4CC[C@@H](C3)[C@H]4C(=O)O)n2)c1 [Compound 324] | 66 | 73 (≈ 129 µM) | 0.92 (≈ 1.63 µM) | 
Cc1ccc(OCc2ccc(C(=O)N3CCN(C)C(=O)C3)cc2C)c(-c2csc(N3C[C@H]4CC[C@@H](C3)[C@H]4C(=O)O)n2)c1 [Compound 308] | 20 | 66 (≈ 112 µM) | 0.88 (≈ 1.49 µM) | 
Cc1ccc(OCc2ccc(C(=O)N(C)Cc3ccn(C)n3)cc2C)c(-c2csc(N3C[C@H]4CC[C@@H](C3)[C@H]4C(=O)O)n2)c1 [Compound 343] | 46 | 52 (≈ 86.7 µM) | < 0.1 | 
COC1CCCN(C(=O)c2ccc(COc3ccc(C)cc3-c3csc(N4C[C@H]5CC[C@@H](C4)[C@H]5C(=O)O)n3)c(C)c2)C1 (stereo partly shown) [Compound 322] | 19 | 42 (≈ 71.2 µM) | 0.15 (≈ 0.254 µM) | 
Cc1ccc(OCc2ccc(CN3CCN(C(=O)C4CC4)CC3)cc2C#N)c(-c2csc(N3C[C@H]4CC[C@@H](C3)[C@H]4C(=O)O)n2)c1 [Compound 265] | 42 | 1.9 (≈ 3.04 µM) | 0.79 (≈ 1.26 µM) | 
COC[C@]1(C(=O)O)[C@@H]2CC[C@H]1CN(c1nc(-c3cc(C)ccc3OCc3ccc(C(=O)N4CCCCC4)cc3C)cs1)C2 [Compound 258] | 550 | 8.2 (≈ 13.6 µM) | < 0.1 | 
Cc1ccc(OCc2ccc(CN3CCN(C(C)C)C(=O)C3)cc2C)c(-c2csc(N3CC4CCC(C3)C4C(=O)O)n2)c1 (stereo not shown) [Compound 293] | 29 | 3.4 (≈ 5.64 µM) | < 0.1 | 
Cc1ccc(OCc2ccc(CN3CCOCC3)cc2C)c(-c2csc(N3CC(C4(C(=O)O)CC4)C3)n2)c1 [Compound 261] | 710 | 6.4 (≈ 12 µM) | 17 (≈ 31.9 µM) | 
Cc1ccc(OCc2ccc(C(=O)N3CCOCC3)cc2C)c(-c2csc(N3CC[C@@]4(C(=O)O)C[C@H]4C3)n2)c1 [Compound 224] | 5.8 | 54 (≈ 98.6 µM) | < 0.1 | 
Cc1ccc(OCc2ccc(C(=O)N3CC[C@@H](CO)C3)cc2C)c(-c2csc(N3C[C@H]4CC[C@@H](C3)[C@H]4C(=O)O)n2)c1 [Compound 326] | 61 | 65 (≈ 113 µM) | 0.21 (≈ 0.365 µM) | 
Cc1ccc(OCc2ccc(C(=O)N3CCC(CO)CC3)cc2C)c(-c2csc(N3C[C@H]4CC[C@@H](C3)[C@H]4C(=O)O)n2)c1 [Compound 309] | 42 | 63 (≈ 107 µM) | < 0.1 | 
Cc1ccc(OCc2ccc(C(=O)N3CCC[C@H](O)C3)cc2C)c(-c2csc(N3C[C@H]4CC[C@@H](C3)[C@H]4C(=O)O)n2)c1 [Compound 319] | 70 | 12 (≈ 20.8 µM) | 0.23 (≈ 0.399 µM) | 
Cc1ccc(OCc2ccc(CN3CCS(=O)(=O)CC3)cc2C)c(-c2csc(N3CC[C@@H](C(=O)O)[C@H]3C)n2)c1 [Compound 245] | 290 | 48 (≈ 84.2 µM) | 3.6 (≈ 6.32 µM) | 
COCCCN(C)C(=O)c1ccc(COc2ccc(C)cc2-c2csc(N3C[C@H]4CC[C@@H](C3)[C@H]4C(=O)O)n2)c(C)c1 [Compound 338] | 43 | 58 (≈ 100 µM) | 0.13 (≈ 0.225 µM) | 
Cc1ccc(OCc2ccc(C(=O)N(C)CC(=O)N(C)C)cc2C)c(-c2csc(N3C[C@H]4CC[C@@H](C3)[C@H]4C(=O)O)n2)c1 [Compound 345] | 130 | 66 (≈ 112 µM) | 4 (≈ 6.77 µM) | > 58

SMILES | EC50 [1] [nM] | solubility [2, 3] [µg/mL] | solubility [2, 4] [µg/mL] | solubility [2, 5] [µg/mL]
CCc1cc(C(=O)N2CCCCC2)ccc1COc1ccc(C)cc1-c1csc(N2C[C@H]3CC[C@@H](C2)[C@H]3C(=O)O)n1 [Compound 287] | 6.2 | 21 (≈ 36.6 µM) | < 0.1 | 
Cc1ccc(OCc2ccc(C(=O)N3CCNC(=O)C3)cc2C)c(-c2csc(N3C[C@H]4CC[C@@H](C3)[C@H]4C(=O)O)n2)c1 [Compound 314] | 63 | 68 (≈ 118 µM) | 2.4 (≈ 4.18 µM) | 
CO[C@H]1CCN(C(=O)c2ccc(COc3ccc(C)cc3-c3csc(N4C[C@H]5CC[C@@H](C4)[C@H]5C(=O)O)n3)c(C)c2)C1 [Compound 328] | 29 | 62 (≈ 108 µM) | < 0.1 | 
Cc1ccc(OCc2ccc(C(=O)N3CC[C@H](N(C)C)C3)cc2C)c(-c2csc(N3C[C@H]4CC[C@@H](C3)[C@H]4C(=O)O)n2)c1 [Compound 311] | 29 | 63 (≈ 107 µM) | 58 (≈ 98.5 µM) | 
Cc1ccc(OCc2ccc(C(=O)N3CCC(F)(F)C3)cc2C)c(-c2csc(N3C[C@H]4CC[C@@H](C3)[C@H]4C(=O)O)n2)c1 [Compound 320] | 15 | 36 (≈ 61.9 µM) | < 0.1 | 
Cc1ccc(OCc2ccc(C(=O)N(C)CCC#N)cc2C)c(-c2csc(N3C[C@H]4CC[C@@H](C3)[C@H]4C(=O)O)n2)c1 [Compound 296] | 50 | 10 (≈ 17.9 µM) | < 0.1 | 
Cc1ccc(OCc2ccc(CN3CCOCC3)cc2C#N)c(-c2csc(N3C[C@H]4CC[C@@H](C3)[C@H]4C(=O)O)n2)c1 [Compound 264] | 21 | 12 (≈ 21.5 µM) | 21 (≈ 37.6 µM) | 
Cc1ccc(OCc2ccc(CN3CCOCC3)cc2C)c(-c2csc(N3C[C@H]4CC[C@@H](C3)[C@@]4(C)C(=O)O)n2)c1 [Compound 270, 8-methyl-3-{4-[5-methyl-2-(2-methyl-4-morpholin-4-ylmethyl-benzyloxy)-phenyl]-thiazol-2-yl}-3-aza-bicyclo[3.2.1]octane-8(syn)-carboxylic acid] | 96 |  | 17 (≈ 30.3 µM) | > 56
Cc1ccc(OCc2ccc(C(=O)N3CCCCC3)cc2C)c(-c2csc(N3C[C@H]4CC[C@@H](C3)[C@@]4(F)C(=O)O)n2)c1 [Compound 221, 8-fluoro-3-(4-{5-methyl-2-[2-methyl-4-(piperidine-1-carbonyl)-benzyloxy]-phenyl}-thiazol-2-yl)-3-aza-bicyclo[3.2.1]octane-8(syn)-carboxylic acid] | 75 | 0.45 (≈ 0.779 µM) | < 0.1 | 
COC1CCN(C(=O)c2ccc(COc3ccc(C)cc3-c3csc(N4C[C@H]5CC[C@@H](C4)[C@H]5C(=O)O)n3)c(C)c2)CC1 [Compound 321] | 55 | 41 (≈ 69.5 µM) | 0.13 (≈ 0.22 µM) | 
CCN1CCN(Cc2ccc(COc3ccc(C)cc3-c3csc(N4CC5CCC(C4)C5C(=O)O)n3)c(C)c2)CC1=O (stereo not shown) [Compound 291] | 7.6 | 13 (≈ 22.1 µM) | 0.18 (≈ 0.306 µM) | 
Cc1ccc(OCc2ccc(CN3CCOCC3)cc2C)c(-c2csc(N3C[C@@H]4[C@H](C3)[C@@H]4C(=O)O)n2)c1 [Compound 246] | 340 | 54 (≈ 104 µM) | 62 (≈ 119 µM) | 
Cc1ccc(OCc2ccc(CN3CCS(=O)(=O)CC3)cc2C)c(-c2csc(N3CC(CC(=O)O)C3)n2)c1 [Compound 253] | 380 | 0.29 (≈ 0.522 µM) | 0.5 (≈ 0.9 µM) | 
Cc1ccc(OCc2ccc(C(=O)N3CCOCC3)cc2C)c(-c2csc(N3CC[C@@H](C(=O)O)[C@H]3C)n2)c1 [Compound 241] | 41 | 72 (≈ 134 µM) | 9.2 (≈ 17.2 µM) | 
Cc1ccc(OCc2ccc(C(=O)N3CCN(C)C(=O)C3)cc2C)c(-c2csc(N3CCC(C(=O)O)CC3)n2)c1 [Compound 349] | 40 | 69 (≈ 123 µM) | 6.5 (≈ 11.6 µM) | 

Reference: patent publication US8815857B2 (Boehringer Ingelheim International GmbH, priority 2011, dated 2014)
